Source: patent US20140323575A1, “TYROSINE ISOMERS AS THERAPEUTIC AGENTS” (CONSEJO NACIONAL DE INVESTIGACIONES CIENTIFICAS Y TECNICAS …, priority 2011, published 2014)

How the values were obtained:
[1] = tested on: inhibitory activity present in serum from LB tumor-bearing mice; assay: Titer of growth-inhibitory activity in serum from drug-treated LB tumor-bearing mice; assay type: in vivo; conditions: for effect on serum inhibitory activity of LB tumor-bearing mice: treatment of LB tumor-bearing mice
LB tumor cells [2] = assay: Rescue of in vitro LB tumor inhibition mediated by m- or o-tyrosine by co-culturing with amino acids; assay type: cell-based, mice; conditions: co-culture with m- or o-tyrosine
Experimental: (§1) Each point (percentage of cpm incorporated by LB cells as compared with the control) represents the mean±SE of 3 experiments. Significance versus control, meta-tyrosine and peak 2: P<0.001 at >2.75 μg/mL; peak 2: P<0.05 at 2.75 μg/mL. ortho-tyrosine P<0.001 at 500 to 125 μg/mL; P<0.002 at 30 μg/mL. Peak 3: P<0.002 and P<0.01, at 31 and 15.5 μg/mL, respectively. Rescue of in vitro LB tumor inhibition mediated by meta-tyrosine (150 μg/mL)(B) or ortho-tyrosine (150 μg/mL) (C) by co-culturing with 150 μg/mL of individual protein amino acids. Each value represents the mean±SE of 8 to 18 determinations for (B) and 4 to 9 determinations for (C). a, P<0.01; c, P<0.001 versus meta- or ortho-tyrosine. Data with saline was similar to data obtained with each amino acid alone.

LB tumor cells [3] = assay: In vitro LB tumor cell proliferation ([3H]-thymidine uptake); assay type: cell-based, mice; conditions: even with high concentrations
Experimental: as §1
Fractionation of serum from mice bearing a subcutaneous LB tumor (size≧2,000 mm^3) was carried out through several steps of purification (FIG. 1). Serum from normal mice was similarly fractioned as control. At all stages of the purification, the presence of the inhibitory factor was monitored by the [^3H]-thymidine uptake assay as a measure of LB tumor cell proliferation. First, serum was decomplemented and subjected to dialysis. The inhibitory factor was recovered only in the dialyzable fraction (MW<12,500 Da) and was then concentrated by lyophilization and applied successively to Sephadex G-25 and G-15 chromatographic columns, where activity was recovered at fractions corresponding to a molecular weight below 1,000 Da. These fractions were lyophilized and further purified with an HPLC column C18 in a gradient of acetonitrile in TFA (first HPLC). In 12 similar and independent experiments, growth inhibitory activity was systematically recovered in only 1 fraction eluted at near 20% acetonitrile (FIG. 2).
To test directly whether a “cocktail” of amino acids similar to that detected close to the “primary site” was more counteracting of the antitumor effects produced by m- and o-tyrosine than a “secondary site cocktail,” different concentrations of a mixture of m-tyrosine and o-tyrosine (ratio 1:1) were assayed on LB tumor cell proliferation, alone or together with a primary or a secondary site cocktail of amino acids.

CEI tumor = assay: In vivo growth of s.c. CEI epidermoid carcinoma implants; set-up: species or system mice; conditions: secondary CEI implant in primary tumor-bearing mice, 0.2 ml of 500 μg/ml daily for 19 days at the site
Experimental: Twelve mice received a s.c. implant of 1×10^6 CEI tumor cells in the right flank and 28 days later they received a secondary implant of 3×10^5 CEI tumor cells in the left flank. […] The remaining 6 mice received 0.2 ml of phenylalanine (500 μg/ml) at the site of the secondary implant, daily, for 19 days, starting 1 hour later than the secondary implant. These secondary implants grew as in 6 controls only receiving the implant in the left flank (tumor volumes of secondary tumor+phenylalanine and of controls, 20 days after the implant in the left flank were 358±38 mm^3 and 373±93 mm^3, respectively). […] Significance: Secondary tumor and control+m-tyrosine vs. control: p<0.01; vs. secondary tumor+phenylalanine: p<0.001.

ERK1 and ERK2 = assay: Western blot of p-ERK 1/2 in LB tumor cells; assay type: cell-based, mice; conditions: added together with m-tyrosine, 250 μg/mL each, 3 minutes
Experimental: (§2) FIG. 8 illustrates the effect of meta-tyrosine on the expression of phosphorylated (p)-Erk 1/2 and p-STAT3 in LB tumor cells using Western blot: 3×10^5 LB tumor cells in 0.1 mL of medium were cultured in the presence of 0.1 mL of meta-tyrosine (m-Tyr; 250 μg/mL), phenylalanine (Phe, 250 μg/mL), meta-tyrosine (250 μg/mL)+phenylalanine (250 μg/mL), or saline for 3 minutes (to measure p-ERK 1/2) or for 8 hours (to measure p-STAT3). Positive control was obtained by treating LB cells with pervanadate. Controls with acting, total ERK 1/2, and total STAT3 were also added. FIG. 8A illustrates a representative experiment showing p-ERK 1/2 expression. FIG. 8B is a histogram showing the mean of 5 experiments; a, P<0.01 versus saline and versus meta-tyrosine+phenylalanine; P<0.02 versus phenylalanine. FIG. 8C illustrates a representative experiment showing p-STAT3 expression. […]
(§3) On this basis, we analyzed, first, the effect of m-tyrosine on ERK1 and ERK2 as 2 examples of protein kinases that are activated by the mitogen activated protein/extracellular signal-regulated kinase (MAP/ERK) signal transduction pathway that normally couples intracellular responses associated with cell proliferation, to the binding of growth factors to cell surface receptors (Kohno M, and Pouyssegur J. 2006. Targeting the ERK signaling pathway in cancer therapy. Ann Med; 38:200-211). […]

LB tumor = assay: In vivo growth of s.c. LB tumor implants (primary, secondary under CR, established, ascitic); set-up: species or system mice
Experimental: Twenty mice received an s.c. implant of 1×10^6 LB cells in the right flank, and, 7 days later, an s.c. secondary implant of 1×10^5 LB tumor cells in the left flank. […] The remaining 10 mice received 0.2 mL of phenylalanine (500 μg/mL) at the site of the secondary implant, daily, for 8 days, starting 1 hour after the secondary inoculum [CR+Phe (-□-)]. Controls were 10 mice receiving 1×10^5 LB tumor cells in the left flank only [control (-Δ-)]. A fourth group received the tumor inoculum in the left flank but also meta-tyrosine at the site of tumor implant (0.2 mL of 500 μg/mL, n=10) or by the intraperitoneal route (0.5 mL of 1,000 μg/mL, n=6), daily, for 8 days, starting 1 hour after tumor inoculum [control+m-Tyr: (-▴-)]. A fifth group received the tumor inoculum in the left flank and also meta-tyrosine (0.2 mL of 500 μg/mL, n=5) at the site of tumor growth, daily for 5 days, starting (see arrow) when LB was an established tumor measuring 60 to 70 mm^3 [est. LB+m-Tyr: (-X-)]. Abscissa, days after tumor implant in the left flank. Ordinate, volume of the tumors implanted in the left flank. CR and control+m-Tyr versus control: P<0.001 at day 9 and P<0.002 at days 5 and 7; CR and control+m-Tyr versus CR+Phe: P<0.001 at days 5, 7 and […]; est. LB+m-Tyr versus control and CR+Phe: P<0.002 at day 9. Control+tyrosine or saline, control; CR+tyrosine or saline, CR. FIG. 6B is a microscopic view showing many tumor cells expressing Ki-67 protein in both CR+phenylalanine (B1) and control (B2) groups and few tumor cells expressing Ki-67 in both CR (B3) and control+meta-tyrosine (B4) groups (H×400). FIG. 6C illustrates a representative experiment showing the frequency distribution histogram of viable LB cells from a control tumor (C1), from a secondary tumor inhibited by CR (C2), and from a tumor inhibited by periodic intraumoral injection of meta-tyrosine (C3). Samples of tumor cells were collected 9 days after the s.c. inoculation of 1×10^5 LB tumor cells.

STAT3 = assay: Western blot of p-STAT3 in LB tumor cells; assay type: cell-based, mice; conditions: added together with m-tyrosine, 250 μg/mL each, 8 hours
Experimental: as §2, §3

MC-C tumor = assay: In vivo growth of s.c. MC-C fibrosarcoma implants; set-up: species or system mice; conditions: secondary MC-C implant in primary tumor-bearing mice, 0.2 ml of 500 μg/ml daily for 19 days at the site
Experimental: Twelve mice received a s.c. implant of 5×10^6 MC-C tumor cells in the right flank and 25 days later they received a secondary implant of 2×10^6 MC-C tumor cells in the left flank. […] The remaining 6 mice received 0.2 ml of phenylalanine (500 μg/ml) at the site of the secondary implant, daily, for 19 days, starting 1 hour later than the secondary implant. These secondary implants grew as in 6 controls only receiving the implant in the left flank (tumor volumes of secondary tumor+phenylalanine and of controls, 20 days after the implant in the left flank were =680±152 mm^3 and 524±88 mm^3, respectively). […] Significance: Secondary tumor vs. control: p<0.01; vs. secondary tumor+phenylalanine: p<0.02. Control+m-tyrosine vs. control and vs. secondary tumor+phenylalanine: p<0.02.

[4] = serum of mice bearing s.c. LB tumor >2,000 mm^3, agent i.p. 48 and 24 hours before testing, titer = reciprocal of serum dilution producing 50% inhibition of [3H]thymidine uptake by LB cells

Row | Molecule | GIU50/mL (X ± SE) [1, 4] [GIU50/mL] | effect on serum inhibitory activity of LB tumor-bearing mice [1] | counteracting of the inhibitory effect produced by m- and o-tyrosine (LB tumor cells [2]) | further results
1 | Nc1ccn([C@@H]2O[C@H](CO)[C@@H](O)C2(F)F)c(=O)n1 [Gemcitabine, gemcitabine] | 40 ± 6 | significant reduction |  | 
2 | N[C@@H](Cc1c[nH]cn1)C(=O)O [histidine] |  |  | only counteracted the inhibitory effect produced by m-tyrosine | 
3 | NC(=O)CC[C@H](N)C(=O)O [glutamine] |  |  | counteracted | 
4 | CCCCc1nc(Cl)c(CO)n1Cc1ccc(-c2ccccc2-c2nn[nH]n2)cc1 [Losartant, losartan] |  | did not reduce |  | GIU50/mL (X ± SE) ([1]; ip): 300 ± 30 GIU50/mL
5 | N[C@@H](CC(=O)O)C(=O)O [aspartic acid] |  |  | counteracted | 
6 | N[C@@H](CCC(=O)O)C(=O)O [glutamic acid] |  |  | counteracted | 
7 | CC(Cc1ccc(O)c(O)c1)C(C)Cc1ccc(O)c(O)c1 (centres unmarked) [NDGA, nordihydroguaiaretic acid] | 116 ± 14 | significant reduction |  | 
8 | COc1ccc2c(c1)c(CC(=O)O)c(C)n2C(=O)c1ccc(Cl)cc1 [INDO, indomethacin] |  | significant reduction |  | GIU50/mL (X ± SE) ([1]; ip): 142 ± 16 GIU50/mL
9 | N[C@@H](Cc1ccc(O)cc1)C(=O)O [tyrosine, 4-hydroxyphenylalanine] |  |  | did not reduce | effect on LB cells in vitro (LB tumor cells [3]): innocuous
10 | N[C@@H](Cc1ccccc1)C(=O)O [phenylalanine, reference compound] |  |  | counteracted | tumor volume of secondary tumor 20 days after the implant in the left flank (CEI tumor): 358±38 mm^3; effect on the m-tyrosine-induced reduction of ERK1/ERK2 activation (ERK1 and ERK2): reversed that effect; expression of Ki-67 protein in tumor cells (LB tumor; control+m-tyrosine tumors or secondary implants treated with phenylalanine (FIG. 6B)): high expression; growth of secondary LB tumor implant otherwise inhibited by CR (LB tumor; periodically inoculated at the site of the secondary implant): grew similarly to controls; effect on the m-tyrosine-induced reduction of STAT3 activation (STAT3): reversed that effect; tumor volume of secondary tumor 20 days after the implant in the left flank (MC-C tumor): 680±152 mm^3
11 | O=C1CCN(c2ccccc2)N1 [Phenidone, phenidone] | 103 ± 19 | significant reduction |  | 
12 | Catalase | 49 ± 5 | significant reduction |  | 
13 | CC(CN1c2ccccc2Sc2ccccc21)N(C)C (centres unmarked) [Promethazine, promethazine] | 80 ± 9 | significant reduction |  | 
14 | CN(C)CCCN1c2ccccc2Sc2ccc(Cl)cc21 [Chlorpromazine, chlorpromazine] |  | significant reduction |  | GIU50/mL (X ± SE) ([1]; ip): 84 ± 19 GIU50/mL
15 | COC(=O)[C@@H](N)CCCNC(=N)N[N+](=O)[O-] [L-NAME] | 266 ± 34 | did not reduce |  | 
16 | C[C@@H]1C[C@H]2[C@@H]3CCC4=CC(=O)C=C[C@]4(C)[C@@]3(F)[C@@H](O)C[C@]2(C)[C@@]1(O)C(=O)CO [Dexamethasone, dexamethasone] |  |  |  | GIU50/mL (X ± SE) ([1]; ip): 70 ± 18 GIU50/mL
